Where “and” joins values, the source holds several entries; their conditions need not be identical. Equal values may be shown once. Entries after “also recorded” stand apart in the source; their conditions may differ. Read-outs that look alike come from different tables or passages of the source. Marks after values point to notes of the source that are not given here.
Tests used:
[1] = test system: human mammary carcinoma MX-1 xenograft; set-up: Toxicity toward Nude Mice: key to the marks not given beside the values; details: for Toxicity toward Nude Mice: based on body weight decrease or lethality; for Therapeutic Effect against MX-1 Xenograft: based on tumor volume reduction vs untreated control
Protocol: DMSO was used as a vehicle for epothilones. Each mouse received ≦40 μL DMSO in all experiments.
Athymic nude mice (nu/nu) were used for MX-1 and MCF-7/Adr human mammary carcinoma xenografts. Mice were obtained from Taconic Laboratory Animals and Service (Germantown, N.Y.: outbred, Swiss background).

[2] = test system: CCRF-CEM/Taxol®; assay: CCRF-CEM/Taxol xenograft, i.v. 6 h infusion; type: in vivo, nude mice
From the text: Treatment on days 6, 8, 10, 12 and 14.
Treatment on days 19, 21, 23, 25, 27, 39, 41, 43, 45 and 47.

[3] = test system: Human Lymphoblastic Leukemia CCRF-CEM; assay: CCRF-CEM xenograft in nude mice, i.v. 6 h infusion; type: in vivo
[4] = test system: HT-29 Colon Adenocarcinoma; assay: HT-29 xenograft; type: in vivo, nude mice
[5] = Hematology and blood chemistry toxicity in MX-1 bearing mice; details: day 30; dEpoB 25 mg/kg i.p. day 7-15 then 35 mg/kg day 17-25; Taxol 5 then 6 mg/kg; MX-1 bearing nude mice
[6] = dEpo B 15 mg/kg i.v. Q2Dx5 from day 9
[7] = dEpo B 15 mg/kg i.v. Q2Dx5 from day 9, day 13
[8] = dEpo B 15 mg/kg i.v. Q2Dx5 from day 9, day 15
[9] = dEpo B 15 mg/kg i.v. Q2Dx5 from day 9, day 17
[10] = dEpo B 15 mg/kg i.v. Q2Dx5 from day 9, day 19
[11] = i.p., Cremophor-EtOH, 15 mg/kg Q2D x 5 (dose of dEpoB)
[12] = i.p., DMSO, 35 mg/kg Q2D x 5 (dose of dEpoB)
[13] = i.v. infusion 6 hr, Cremophor-EtOH, 30 mg/kg Q2D x 5 (dose of dEpoB)
[14] = i.v. infusion 24 hr, Cremophor-EtOH, 60 mg/kg Q4D x 2 (dose of dEpoB)
[15] = i.v. injection, DMSO, 15 mg/kg Q2D x 5 (dose of dEpoB)
[16] = i.v. injection, DMSO, 24 mg/kg Q2D x 5 (dose of dEpoB)
[17] = CCRF/Taxol Leukemia, dEpoB 30 mg/kg Q2D x 6, Taxol 15 mg/kg Q2D x 6
[18] = CCRF/CEM Leukemia, dEpoB 30 mg/kg Q2D x 5, Taxol 15 mg/kg Q2D x 5
[19] = dEpoB 30 mg/kg Q2D x 6, Taxol 15 mg/kg Q2D x 6

C/C1=C/C[C@@H](/C(C)=C/c2csc(C)n2)OC(=O)C[C@H](O)C(C)(C)C(=O)[C@H](C)[C@@H](O)[C@@H](C)CCC1 [Desoxyepothilone B, desoxyepothilone B]
therapeutic outcome ([1]; 6 hr i.v. infusion): full cure | Toxicity Death [1, 6]: 4/6^b | Tumor Disapp. [1, 6]: 0/6 | Average Body Weight Change [1, 7]: 0 g | Average Tumor Size (T/C) [1, 7]: 0.47 | Average Body Weight Change [1, 8]: -0.6 g | Average Tumor Size (T/C) [1, 8]: 0.30 | Average Body Weight Change [1, 9]: -1.1 g | Average Tumor Size (T/C) [1, 9]: 0.10 | Average Body Weight Change [1, 10]: -2.6 g | Average Tumor Size (T/C) [1, 10]: 0.04 | tumor size treated/control ([1]; dEpoB 35 mg/kg i.p. Q2Dx5, day 19): 0.02 | mice with tumor disappearing on day 28 (or day 31) ([1]; extended 40 mg/kg i.p. every other day from day 18, 5 more doses): 5 out of 10 | Average Tumor Disappearance Duration ([1]; extended experiment, Desoxyepo B 40 mg/kg i.p., in 5/10 mice): 44 (5/10) Day | Toxicity toward Nude Mice [1, 11]: +++++ | Therapeutic Effect against MX-1 Xenograft [1, 11]: + | Toxicity toward Nude Mice [1, 12]: ++ | Therapeutic Effect against MX-1 Xenograft [1, 12]: +++++ | Toxicity toward Nude Mice [1, 13]: ++ | Therapeutic Effect against MX-1 Xenograft [1, 13]: +++++ | Toxicity toward Nude Mice [1, 14]: +++ | Therapeutic Effect against MX-1 Xenograft [1, 14]: +++++ | Toxicity toward Nude Mice [1, 15]: +++ | Therapeutic Effect against MX-1 Xenograft [1, 15]: ++ | Toxicity toward Nude Mice [1, 16]: +++ | Therapeutic Effect against MX-1 Xenograft [1, 16]: ++ | # Died of toxicity ([1]; mouse, in vivo): 0/10 | Average Body Weight (change), Day 14 ([1]; mouse, in vivo): -2.7 g | Average Body Weight (change), Day 16 ([1]; mouse, in vivo): -4.0 g | Average Body Weight (change), Day 18 ([1]; mouse, in vivo): -4.5 g | Average Body Weight (change), Day 20 ([1]; mouse, in vivo): -6.8 g | Average Body Weight Change, Day 20 ([1]; mouse, in vivo): -1.7 g | Average Body Weight Change, Day 22 ([1]; mouse, in vivo): -2.4 g | Average Body Weight Change, Day 24 ([1]; mouse, in vivo): -2.4 g | Average Body Weight Change, Day 26 ([1]; mouse, in vivo): -1.4 g | Average Body Weight Change, Day 28 ([1]; mouse, in vivo): -1.2 g | Average Tumor Size (T/C), Day 14 ([1]; mouse, in vivo): 0.19 T/C | Average Tumor Size (T/C), Day 16 ([1]; mouse, in vivo): 0.10 T/C | Average Tumor Size (T/C), Day 18 ([1]; mouse, in vivo): 0.03 T/C | Died ([1]; mouse, in vivo): 0/10 | Lowest Average Tumor Size (T/C) ([1]; mouse, in vivo): 0 T/C | Therapeutic Effects dEpoB vs Taxol ([1]; mouse, in vivo): ≅ | Tumor Disappearance ([1]; mouse, in vivo): 3/3 and 5/5 | Tumor Disappearance, Day 20 ([1]; mouse, in vivo): 2.10^b | Tumor Disappearance, Day 22 ([1]; mouse, in vivo): 2/10 | Tumor Disappearance, Day 24 ([1]; mouse, in vivo): 3/10 | Tumor Disappearance, Day 26 ([1]; mouse, in vivo): 5/10 | Tumor Disappearance, Day 28 ([1]; mouse, in vivo): 5/10 | Therapeutic effect Rank Order ([1]; mouse, in vivo, ip): dEpoB > Camptothecin >; also recorded: dEpoB > Adriamycin > Taxol ® | Therapeutic effect Rank Order ([1]; mouse, in vivo, iv): Taxol ® ≈ dEpoB | Tumor Size, individual mice, Day 60 ([1]; surviving mice 4, 5, 9, 35 mg/kg on day 8-16, 40 mg/kg on day 18-26, then no treatment): 0 mm^3 (2×) and 4 mm^3 | therapeutic outcome ([2]; 6 hr i.v. infusion): full cure | Therapeutic effect Rank Order ([2]; CCRF-CEM/Taxol, i.v. infusion): dEpoB >>> Taxol ® | Lowest Average Tumor Size (T/C) [2, 17]: 0 T/C | Tumor Disappearance [2, 17]: 3/3 | Therapeutic Effects dEpoB vs Taxol ([2]; CCRF/Taxol Leukemia, dEpoB 30 mg/kg Q2D x 6 vs Taxol 15 mg/kg Q2D x 6): >>> | Therapeutic effect Rank Order ([3]; CCRF-CEM, i.v. infusion): dEpoB ≈ Taxol ® | Lowest Average Tumor Size (T/C) [3, 18]: 0 T/C | Tumor Disappearance [3, 18]: 2/2 | Therapeutic Effects dEpoB vs Taxol ([3]; CCRF/CEM Leukemia, dEpoB 30 mg/kg Q2D x 5 vs Taxol 15 mg/kg Q2D x 5): ≅ | Lowest Average Tumor Size (T/C) [4, 19]: 0.02 T/C | Tumor Disappearance [4, 19]: 0 | Therapeutic Effects dEpoB vs Taxol ([4]; dEpoB 30 mg/kg Q2D x 6 vs Taxol 15 mg/kg Q2D x 6): ≦ | Therapeutic effect Rank Order ([4]; i.v. infusion): Taxol ® ≧ dEpoB | GOT [5]: 296 U/L | GPT [5]: 55 (n = 3) U/L | WBC Lymph [5]: 48% | WBC Neutrophils [5]: 48% | WBC Total [5]: 11.8 10^3/mm^3

Reference: patent US6603023B2 (priority 1996, dated 2003)
